# Data from the supplement of paper PMC10307832.
# Assays:
# Assay in all cases: relative viability (nuclei count vs DMSO), 5 days (fraction); higher = more cells survive
# [1] = test system: HARA
# In short: (§1)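 Lung cancer cell lines, seeded in 1536-well plates, were treated the following day by pin tool with a single drug or with five library-drug doses (not always all listed) in √10 steps on top of a fixed anchor-drug dose. Cells were fixed and nuclei stained in one step after 5 days, and nuclei were counted. Relative viability is the nuclei count for treated wells divided by that for vehicle wells, reported as medians of duplicate plates.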
# [2] = test system: NCI-H1734
# In short: as §1
# [3] = test system: SK-LU-1
# In short: as §1
# [4] = test system: NCI-H23
# In short: as §1
# [5] = test system: HCC-366
# In short: as §1
# [6] = test system: A-427
# In short: as §1
# [7] = test system: NCI-H2228
# In short: as §1
# [8] = test system: NCI-H1650
# In short: as §1
# [9] = test system: LK-2
# In short: as §1
# [10] = test system: COR-L23
# In short: as §1
# [11] = test system: NCI-H2009
# In short: as §1
# [12] = test system: NCI-H838
# In short: as §1
smiles,measurement,setting,value
Clc1ccc(Nc2nnc(Cc3ccncc3)c3ccccc23)cc1 [Vatalanib] + O=C(CCCCCCC(=O)Nc1ccccc1)NO [Vorinostat] (partner 1 µM),relative viability,[1]; first compound 0.1265 µM,0.51
same,relative viability,[1]; first compound 0.4 µM,0.479
same,relative viability,[1]; first compound 1.265 µM,0.566
same,relative viability,[1]; first compound 4 µM,0.481
same,relative viability,[2]; first compound 0.04 µM,0.804
same,relative viability,[2]; first compound 0.1265 µM,0.812
same,relative viability,[2]; first compound 0.4 µM,0.937
same,relative viability,[2]; first compound 1.265 µM,0.761
same,relative viability,[2]; first compound 4 µM,0.775
same,relative viability,[3]; first compound 0.04 µM,0.829
same,relative viability,[3]; first compound 0.1265 µM,0.798
same,relative viability,[3]; first compound 0.4 µM,1
same,relative viability,[3]; first compound 1.265 µM,0.721
same,relative viability,[3]; first compound 4 µM,0.8
same,relative viability,[4]; first compound 0.04 µM,0.57
same,relative viability,[4]; first compound 0.1265 µM,0.558
same,relative viability,[4]; first compound 0.4 µM,0.77
same,relative viability,[4]; first compound 1.265 µM,0.495
same,relative viability,[4]; first compound 4 µM,0.546
same,relative viability,[5]; first compound 0.04 µM,0.361
same,relative viability,[5]; first compound 0.1265 µM,0.434
same,relative viability,[5]; first compound 0.4 µM,0.451
same,relative viability,[5]; first compound 1.265 µM,0.254
same,relative viability,[5]; first compound 4 µM,0.394
same,relative viability,[6]; first compound 0.04 µM,0.874
same,relative viability,[6]; first compound 0.1265 µM,0.852
same,relative viability,[6]; first compound 0.4 µM,0.945
same,relative viability,[6]; first compound 4 µM,0.83
same,relative viability,[7]; first compound 0.04 µM,0.795
same,relative viability,[7]; first compound 0.1265 µM,0.589
same,relative viability,[7]; first compound 0.4 µM,0.653
same,relative viability,[7]; first compound 1.265 µM,0.723
same,relative viability,[7]; first compound 4 µM,0.751
same,relative viability,[8]; first compound 0.04 µM,0.555
same,relative viability,[8]; first compound 0.1265 µM,0.517
same,relative viability,[8]; first compound 0.4 µM,0.616
same,relative viability,[8]; first compound 1.265 µM,0.473
same,relative viability,[8]; first compound 4 µM,0.534
same,relative viability,[9]; first compound 0.04 µM,0.388
same,relative viability,[9]; first compound 0.1265 µM,0.314
same,relative viability,[9]; first compound 0.4 µM,0.328
same,relative viability,[9]; first compound 1.265 µM,0.308
same,relative viability,[9]; first compound 4 µM,0.222
same,relative viability,[10]; first compound 0.04 µM,0.356
same,relative viability,[10]; first compound 0.1265 µM,0.553
same,relative viability,[10]; first compound 0.4 µM,0.499
same,relative viability,[10]; first compound 1.265 µM,0.417
same,relative viability,[10]; first compound 4 µM,0.469
same,relative viability,[11]; first compound 0.04 µM,0.767
same,relative viability,[11]; first compound 0.1265 µM,0.741
same,relative viability,[11]; first compound 0.4 µM,0.735
same,relative viability,[11]; first compound 1.265 µM,0.732
same,relative viability,[11]; first compound 4 µM,0.687
same,relative viability,[12]; first compound 0.04 µM,0.738
same,relative viability,[12]; first compound 0.1265 µM,0.761
same,relative viability,[12]; first compound 0.4 µM,0.775
same,relative viability,[12]; first compound 1.265 µM,0.62
same,relative viability,[12]; first compound 4 µM,0.694
